IC50 data for 24 compounds are collected here from patent US20170334899A1, “AMINO-SUBSTITUTED ISOTHIAZOLES” (Bayer Pharma Aktiengesellschaft, priority 2014, published 2017).

Where two headings read alike, the source gives them in different places. Bounds are passed on as bounds.

Experiment [1] deals with T1, catalytic domain of human Bub1 (amino acids 704-1085) (Homo sapiens, UniProt O43683).
T1 construct: catalytic domain of human Bub1 (amino acids 704-1085); His6 (N); made in house; host or cells: insect cells (Hi5)
T1 sequence (O43683 704-1085): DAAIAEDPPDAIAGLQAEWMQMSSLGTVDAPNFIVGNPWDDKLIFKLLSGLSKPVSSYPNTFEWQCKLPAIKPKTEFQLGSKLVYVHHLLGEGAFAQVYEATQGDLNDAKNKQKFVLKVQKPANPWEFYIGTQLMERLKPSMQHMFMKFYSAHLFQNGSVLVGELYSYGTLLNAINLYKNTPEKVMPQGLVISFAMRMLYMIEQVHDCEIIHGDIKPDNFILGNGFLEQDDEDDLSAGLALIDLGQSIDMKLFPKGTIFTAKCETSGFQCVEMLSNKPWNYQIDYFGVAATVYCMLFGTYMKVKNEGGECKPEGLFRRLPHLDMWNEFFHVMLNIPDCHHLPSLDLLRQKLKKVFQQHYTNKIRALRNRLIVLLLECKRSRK
In words: Bub1 kinase assay (TR-FRET). In kind it is biochemical. To be noted: 10 μM ATP, avg, read-out: Bub1 avg (IC50 [mol/l]). In a few lines:
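Readout is the 665/620 nm TR-FRET ratio from anti-phosphoserine antibody, Eu-labelled anti-mouse IgG and streptavidin-XL665, scaled between no-enzyme and uninhibited controls. Reaction: 1 μM biotinylated peptide, 10 μM ATP, 60 min, 22 °C, after 15 min compound preincubation with His6-Bub1 (704-1085, insect-expressed, ~200 ng/ml).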
For orientation: In TR-FRET formats the signal depends on donor and acceptor labels being close together.

The subject of a further experiment is HeLa. Kind of experiment: Proliferation assay (crystal violet), HeLa. It is filed as cell-based. The settings on record: HeLa cells, 4 days incubation, crystal violet staining, read-out: IC50 inhibition of proliferation, HeLa. The procedure, abridged: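 Cells plated at 1000-5000/well with 10% FCS, treated after 24 h with compound at 0.001-10 μM (0.5% DMSO) for 4 days. Glutaraldehyde-fixed, crystal violet-stained, A595 normalised to zero-point plate (0%) and untreated cells (100%); IC50 by 4-parameter fit.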

Turning to `Cc1nsc(Nc2cnc3ccccc3n2)c1C(=O)Nc1cccc(C(=O)N2CCN(C(=O)OC(C)(C)C)CC2)c1` [Example 55, tert-Butyl 4-[3-({[3-methyl-5-(quinoxalin-2-ylamino)-1,2-thiazol-4-yl]carbonyl}amino)-benzoyl]piperazine-1-carboxylate], the IC50 in experiment [1] was not below 20 µM; with HeLa (Homo sapiens, HeLa, 96 h), 10 µM.

Turning to `COCCOc1ccc(NC(=O)c2c(C)nsc2Nc2nc3c(C(F)(F)F)cccc3s2)cn1` [Example 3, N-[6-(2-Methoxyethoxy)pyridin-3-yl]-3-methyl-5-{[4-(trifluoromethyl)-1,3-benzo-thiazol-2-yl]amino}-1,2-thiazole-4-carboxamide], the IC50 is not below 20 µM in experiment [1] and 0.91 µM in the experiment with HeLa (Homo sapiens, HeLa, 96 h).

`Cc1nsc(Nc2cnc3ccccc3n2)c1C(=O)Nc1cccc(NC(=O)C(F)(F)F)c1` [Example 432, 3-Methyl-5-(quinoxalin-2-ylamino)-N-{3-[(trifluoroacetyl)amino]phenyl}-1,2-thiazole-4-carboxamide]: the IC50 is more than 20 µM in experiment [1] and more than 10 µM with HeLa (Homo sapiens, HeLa, 96 h).

With `Cc1nsc(Nc2cnc(C(F)(F)F)cn2)c1C(=O)Nc1ccc(OCCN2CCC(F)(F)CC2)nc1` [Example 407, N-{6-[2-(4,4-Difluoropiperidin-1-yl)ethoxy]pyridin-3-yl}-3-methyl-5-{[5-(trifluoromethyl)pyrazin-2-yl]amino}-1,2-thiazole-4-carboxamide], the IC50 in experiment [1] was more than 20 µM; with HeLa (Homo sapiens, HeLa, 96 h) it was 0.33 µM.

In the case of `Cc1nsc(Nc2cnc(C(F)(F)F)cn2)c1C(=O)Nc1ccc(F)c(OCC2CCN(CC(F)(F)F)C2)c1` (stereo not shown) [Example 318, N-(4-fluoro-3-{[1-(2,2,2-trifluoroethyl)pyrrolidin-3-yl]methoxy}phenyl)-3-methyl-5-{[5-(trifluoromethyl)pyrazin-2-yl]amino}-1,2-thiazole-4-carboxamide], the IC50 in experiment [1] was more than 20 µM; in the experiment on HeLa it was 0.41 µM; with HeLa (Homo sapiens, HeLa, 96 h) it was 0.22 µM.

For `Cc1nsc(Nc2cnc3ccccc3n2)c1C(=O)Nc1ccc(OCCCNC(=O)OC(C)(C)C)nc1` [Example 42, tert-Butyl (3-{[5-({[3-methyl-5-(quinoxalin-2-ylamino)-1,2-thiazol-4-yl]carbonyl}-amino)pyridin-2-yl]oxy}propyl)carbamate], the IC50 in experiment [1] was not below 20 µM; with HeLa (Homo sapiens, HeLa, 96 h) it was 2.3 µM.

`Cc1nsc(Nc2cnc(C(F)(F)F)cn2)c1C(=O)Nc1ccc(OCCN(C)C(=O)OC(C)(C)C)nc1` [Example 429, tert-Butyl methyl{2-[(5-{[(3-methyl-5-{[5-(trifluoromethyl)pyrazin-2-yl]amino}-1,2-thiazol-4-yl)carbonyl]amino}pyridin-2-yl)oxy]ethyl}carbannate]: the IC50 is more than 20 µM in experiment [1] and 0.26 µM with HeLa (Homo sapiens, HeLa, 96 h).

In the case of `Cc1nsc(Nc2cnc(C(F)(F)F)cn2)c1C(=O)Nc1ccc(CCC2CCN(CCC(F)(F)F)CC2)nc1` [Example 420, 3-Methyl-5-{[5-(trifluoromethyl)pyrazin-2-yl]amino}-N-(6-{2-[1-(3,3,3-trifluoro-propyl)piperidin-4-yl]ethyl}pyridin-3-yl)-1,2-thiazole-4-carboxamide], the IC50 in experiment [1] is not below 20 µM; with HeLa (Homo sapiens, HeLa, 96 h) it was 0.63 µM.

`Cc1nsc(Nc2cnc3ccccc3n2)c1C(=O)Nc1cccc(C(=O)N[C@H](C(=O)OC(C)(C)C)[C@@H](C)OC(C)(C)C)c1` [Example 57, tert-Butyl O-tert-butyl-N-[3-({[3-methyl-5-(quinoxalin-2-ylamino)-1,2-thiazol-4 yl]carbonyl}amino)-benzoyl]threoninate]: the IC50 in experiment [1] was not below 20 µM; in the experiment with HeLa (Homo sapiens, HeLa, 96 h), 10 µM.

In the case of `Cc1nsc(Nc2cnc(C(F)(F)F)cn2)c1C(=O)Nc1ccc(OC2CCN(C(=O)OC(C)(C)C)CC2)nc1` [Example 5, tert-Butyl 4-[(5-{[(3-methyl-5-{[5-(trifluoromethyl)pyrazin-2-yl]amino}-1,2-thiazol-4-yl)carbonyl]amino}pyridin-2-yl)oxy]piperidine-1-carboxylate], the IC50 in experiment [1] is not below 20 µM; with HeLa (Homo sapiens, HeLa, 96 h), 0.56 µM.

Take `Cc1nsc(Nc2ccc(C#N)cn2)c1C(=O)Nc1ccc(OC2CCCN(CCF)C2)nc1` (stereo not shown) [Example 38, 5-[(5-Cyanopyridin-2-yl)amino]-N-(6-{[1-(2-fluoroethyl)piperidin-3-yl]oxy}pyridin-3-yl)-3-methyl-1,2-thiazole-4-carboxamide]: the IC50 in experiment [1] was not below 20 µM; in the experiment with HeLa (Homo sapiens, HeLa, 96 h) it was 8.1 µM.

As to `COCCOc1ccc(NC(=O)c2c(C)nsc2Nc2nc3c(C(F)(F)F)cccc3s2)cc1F` [Example 1, N-[3-Fluoro-4-(2-methoxyethoxy)phenyl]-3-methyl-5-{[4-(trifluoromethyl)-1,3-benzothiazol-2-yl]amino}-1,2-thiazole-4-carboxamide], the IC50 in experiment [1] was not below 20 µM; in the experiment on HeLa (Homo sapiens, HeLa, 96 h) it was 0.57 µM.

In the case of `Cc1nsc(Nc2cnc(C(F)(F)F)cn2)c1C(=O)Nc1ccc(F)c(OCCCNC(=O)C(F)(F)F)c1` [Example 427, N-(4-Fluoro-3-{3-[(trifluoroacetyl)amino]propoxy}phenyl)-3-methyl-5-{[5-(trifluoro-methyl)pyrazin-2-yl]amino}-1,2-thiazole-4-carboxamide], the IC50 in experiment [1] is not below 20 µM; in the experiment with HeLa (Homo sapiens, HeLa, 96 h), 0.86 µM.

Regarding `Cc1nsc(Nc2cc(C#N)ccn2)c1C(=O)Nc1ccc(OC2CCCNC2)nc1` (stereo not shown) [Example 35, 5-[(4-Cyanopyridin-2-yl)amino]-3-methyl-N-[6-(piperidin-3-yloxy)pyridin-3-yl]-1,2-thiazole-4-carboxamide], the IC50 in experiment [1] is not below 20 µM; in the experiment with HeLa (Homo sapiens, HeLa, 96 h), 10 µM.

As to `Cc1nsc(Nc2cnccn2)c1C(=O)Nc1ccc(OCCCNC(=O)OC(C)(C)C)nc1` [Example 47, tert-Butyl (3-{[5-({[3-methyl-5-(pyrazin-2-ylamino)-1,2-thiazol-4-yl]carbonyl}-amino)pyridin-2-yl]oxy}propyl)carbamate], the IC50 in experiment [1] is not below 20 µM; in the experiment with HeLa (Homo sapiens, HeLa, 96 h) it was 10 µM.

In the case of `Cc1nsc(Nc2cnc(C(F)(F)F)cn2)c1C(=O)Nc1ccc(OCCCNC(=O)C(F)(F)F)nc1` [Example 428, 3-Methyl-N-(6-{3-[(trifluoroacetyl)amino]propoxy}pyridin-3-yl)-5-{[5-(trifluoro-methyl)pyrazin-2-yl]amino}-1,2-thiazole-4-carboxamide], the IC50 in experiment [1] is more than 20 µM; in the experiment with HeLa (Homo sapiens, HeLa, 96 h), 1.3 µM.

For `Cc1nsc(Nc2cnc(C(F)(F)F)cn2)c1C(=O)Nc1ccc(F)c(O[C@H]2CCN(CC(F)(F)F)C2)c1` [Example 416, N-(4-Fluoro-3-{[(35)-1-(2,2,2-trifluoroethyl)pyrrolidin-3-yl]oxy}phenyl)-3-methyl-5-{[5-(trifluoromethyl)pyrazin-2-yl]amino}-1,2-thiazole-4-carboxamide], the IC50 was more than 20 µM in experiment [1] and 0.25 µM in the experiment with HeLa (Homo sapiens, HeLa, 96 h).

As to `Cc1nsc(Nc2ccc(C#N)cn2)c1C(=O)Nc1ccc(OC2CCCNC2)nc1` (stereo not shown) [Example 37, 5-[(5-Cyanopyridin-2-yl)amino]-3-methyl-N-[6-(piperidin-3-yloxy)pyridin-3-yl]-1,2-thiazole-4-carboxamide], the IC50 was not below 20 µM in experiment [1] and 10 µM in the experiment with HeLa (Homo sapiens, HeLa, 96 h).

For the compound `Cc1nsc(Nc2cnc3ccccc3n2)c1C(=O)Nc1cccc(C(=O)OC(C)(C)C)c1` [Example 49, tert-Butyl 3-({[3-methyl-5-(quinoxalin-2-ylamino)-1,2-thiazol-4-yl]carbonyl}amino)-benzoate], the IC50 is not below 20 µM in experiment [1] and 0.89 µM in the experiment on HeLa (Homo sapiens, HeLa, 96 h).

Consider `Cc1nsc(Nc2nc3c(C(F)(F)F)cccc3s2)c1C(=O)Nc1ccc(OCCO)nc1` [Example 2, N-[6-(2-Hydroxyethoxy)pyridin-3-yl]-3-methyl-5-{[4-(trifluoromethyl)-1,3-benzo-thiazol-2-yl]amino}-1,2-thiazole-4-carboxamide], for which the IC50 in experiment [1] was not below 20 µM; in the experiment on HeLa (Homo sapiens, HeLa, 96 h), 4.9 µM.

As to `Cc1nsc(Nc2cnc(C(F)(F)F)cn2)c1C(=O)Nc1ccc(OCC2CCN(CCC(F)(F)F)CC2(F)F)nc1` (stereo not shown) [Example 402, N-(6-{[3,3-difluoro-1-(3,3,3-trifluoropropyl)piperidin-4-yl]methoxy}pyridin-3-yl)-3-methyl-5-{[5-(trifluoromethyl)pyrazin-2-yl]amino}-1,2-thiazole-4-carboxamide], the IC50 is more than 20 µM in experiment [1] and 0.34 µM with HeLa (Homo sapiens, HeLa, 96 h).

Regarding `Cc1nsc(Nc2cnc(C(F)(F)F)cn2)c1C(=O)Nc1ccc(OC[C@H]2CCN(CC(F)(F)F)C2)nc1` [Example 404, 3-Methyl-N-(6-{[(3S)-1-(2,2,2-trifluoroethyl)pyrrolidin-3-yl]methoxy}pyridin-3-yl)-5-{[5-(trifluoromethyl)pyrazin-2-yl]amino}-1,2-thiazole-4-carboxamide], the IC50 was more than 20 µM in experiment [1] and 0.25 µM in the experiment on HeLa (Homo sapiens, HeLa, 96 h).

For `Cc1nsc(Nc2cnc(C(F)(F)F)cn2)c1C(=O)Nc1ccc(F)c(O[C@@H]2CCN(CCC(F)(F)F)C2)c1` [Example 414, N-(4-Fluoro-3-{[(3R)-1-(3,3,3-trifluoropropyl)pyrrolidin-3-yl]oxy}phenyl)-3-methyl-5-{[5-(trifluoromethyl)pyrazin-2-yl]amino}-1,2-thiazole-4-carboxamide], the IC50 in experiment [1] was more than 20 µM; in the experiment on HeLa (Homo sapiens, HeLa, 96 h) it was 0.29 µM.

Consider `Cc1nsc(Nc2cnc(C(F)(F)F)cn2)c1C(=O)Nc1ccc(O[C@@H]2CN(CC(F)F)C[C@@H]2F)nc1` [Example 411, N-(6-{[(3R,4S)-1-(2,2-Difluoroethyl)-4-fluoropyrrolidin-3-yl]oxy}pyridin-3-yl)-3-methyl-5-{[5-(trifluoromethyl)pyrazin-2-yl]amino}-1,2-thiazole-4-carboxamide], for which the IC50 was more than 20 µM in experiment [1] and 0.17 µM in the experiment with HeLa (Homo sapiens, HeLa, 96 h).
